Molecules are shown by their SMILES.

One assay has as its system PAO1 in human blood. Put plainly: Antimicrobial activity in blood (ex vivo bacteremia model). The class given is cell-based, Pseudomonas aeruginosa. The following applies: for antibacterial effect in blood (in words): human blood, 5×10^7 CFU/mL PAO1, antibiotic combined with D-11 (4 μM), 4 hours; for duration of control of the infection in blood: human blood infected with PAO1, in the presence of 4 μM D-11. As to the method: Human blood of healthy individuals was obtained from Sanquin (certified Dutch organization responsible for meeting the need in healthcare for blood and blood products, https://www.sanquin.nl/) and was infected with 5×10^7 CFU/mL of PAO1. The blood was distributed at 0.5 mL in 2 mL Eppendorf tubes and treated with the antibiotics and peptides at the indicated concentrations at 37 °C for 4 hours. The samples were decimal serially diluted in PBS. Drops of 10 μL of each dilution on LB agar to track the development of infection. The experiment was performed in triplicate.

The subject of a further assay is P. aeruginosa PAO1. Nature of the assay: Cutaneous mouse abscess infection model. The class given is in vivo. As to conditions: BALB/c mice, PAO1 2×10^7 CFU; single dose; azithromycin 7.5, chloramphenicol 8, doxycycline 2 mg/kg, each with D-11 10 mg/kg; 20 h post infection. As to the method: The mouse cutaneous abscess infection model was performed as previously described with minor modifications. 8-week-old specific-pathogen-free female BALB/c mice were used in the experiment. Before infection, 80 μL of 7.5% chloral hydrate were injected intraperitoneally to anaesthetize the mice. PAO1 was grown to an OD600 of 1.0. The bacteria were collected by centrifugation and washed twice with saline. Then the bacteria were resuspended in saline at a concentration of 4 × 10^8 CFU/ml. 50 μL of the bacterial suspension were injected into the right side of the dorsum of the mouse, resulting in 2 × 10^7 CFU per mouse. 30 minutes after the infection, 50 μL saline alone or containing indicated concentration of antibiotic or 10 mg/kg D-11, or a combination of antibiotic and 10 mg/kg D-11 was injected into the infected area. 20 hours post infection, the skin abscess was excised and subjected to homogenization in saline. The live bacteria numbers were determined by plating.

In the case of `CO[C@@H]1[C@@H](OC(N)=O)[C@@H](O)[C@H](Oc2ccc3c(O)c(NC(=O)c4ccc(O)c(CC=C(C)C)c4)c(=O)oc3c2C)OC1(C)C` [Novobiocin], the “antibacterial effect in blood (in words)” value in the assay on PAO1 in human blood is on record as “relative week antibacterial effects”. On to `O=C(N[C@H](CO)[C@H](O)c1ccc([N+](=O)[O-])cc1)C(Cl)Cl` [Chloramphenicol], for which, in the assay with P. aeruginosa PAO1, the “reductions of CFU in the abscess compared to each individual antibiotic” value (shortened to “reductions of CFU in the abscess”) is 2–3 log10. Moreover, in the assay on PAO1 in human blood, the “duration of control of the infection in blood” value (“duration” below) is on record as “more than 24 hours” and the “antibacterial effect in blood (in words)” value was “best antibacterial effects”. For `CO[C@H]1[C@H](OC(=O)c2ccc(C)[nH]2)[C@H](O)[C@@H](Oc2ccc3c(O)c(NC(=O)c4c[nH]c(C(=O)Nc5c(O)c6ccc(O[C@H]7OC(C)(C)[C@@H](OC)[C@H](OC(=O)c8ccc(C)[nH]8)[C@@H]7O)c(C)c6oc5=O)c4C)c(=O)oc3c2C)OC1(C)C` [Coumermycin A1], in the assay with PAO1 in human blood, the “antibacterial effect in blood (in words)” value was “relative week antibacterial effects”.

On to `CC[C@H]1OC(=O)[C@H](C)[C@@H](O[C@H]2C[C@@](C)(OC)[C@@H](O)[C@H](C)O2)[C@H](C)[C@@H](O[C@@H]2O[C@H](C)C[C@H](N(C)C)[C@H]2O)[C@](C)(O)C[C@@H](C)CN(C)[C@H](C)[C@@H](O)[C@]1(C)O` [Azithromycin], for which the “reductions of CFU in the abscess” value in the assay on P. aeruginosa PAO1 is 2–3 log10. Besides, in the assay on PAO1 in human blood, the “duration” value is given as “more than 24 hours”.

`CO[C@H]1/C=C/O[C@@]2(C)Oc3c(C)c(O)c4c(O)c(c(/C=N/N5CCN(C)CC5)c(O)c4c3C2=O)NC(=O)/C(C)=C\C=C\[C@H](C)[C@H](O)[C@@H](C)[C@@H](O)[C@@H](C)[C@H](OC(C)=O)[C@@H]1C` [Rifampicin]: in the assay on PAO1 in human blood, the “antibacterial effect in blood (in words)” value is “best antibacterial effects”. Take `C[C@H]1c2cccc(O)c2C(=O)C2=C(O)[C@]3(O)C(=O)C(C(N)=O)=C(O)[C@@H](N(C)C)[C@@H]3[C@@H](O)[C@@H]21` [Doxycycline]: the “reductions of CFU in the abscess” value with P. aeruginosa PAO1 is given as 2–3 log10. Also, in the assay with PAO1 in human blood, the “duration” value is on record as “more than 24 hours” and the “antibacterial effect in blood (in words)” value is on record as “best antibacterial effects”. With `CC[C@H]1OC(=O)[C@H](C)[C@@H](O[C@H]2C[C@@](C)(OC)[C@@H](O)[C@H](C)O2)[C@H](C)[C@@H](O[C@@H]2O[C@H](C)C[C@H](N(C)C)[C@H]2O)[C@](C)(OC)C[C@@H](C)C(=O)[C@H](C)[C@@H](O)[C@]1(C)O` [Clarithromycin], the “duration” value in the assay with PAO1 in human blood is reported as “more than 24 hours”.

Source of the values: article PMC8445441, “Elucidating the mechanism by which synthetic helper peptides sensitize Pseudomonas aeruginosa to multiple antibiotics” (PLoS Pathogens, 2021).
